Measurements: article PMC8354230 (Journal of Virology, 2021)
Like-named read-outs stand apart in the source and are kept apart here.

Assays:
[1] = system: 293FT/ACE2/TMPRSS2/DSP1-7 cells; conditions: 2 days; for cell viability: at concentrations above 40 µM; for concentration above which cytotoxicity was exhibited / CC50: WST-8; for CC50: 293FT/ACE2/TMPRSS2/DSP1-7 cells
[2] = system: SARS-CoV-2 S protein-mediated cell-cell fusion; experiment: microbe, parasite or virus in culture; format: cell-based
in vitro = conditions: human
ACE2 [3] = experiment: Cell surface expression of ACE2 by flow cytometry; format: cell-based; conditions: 293FT/ACE2/TMPRSS2/DSP1-7 cells, 5 µM, compared with DMSO or 10 µM GT11
[4] = system: SARS-CoV-2 NCGM-05-2N strain; experiment: microbe, parasite or virus in culture; format: cell-based
[5] = system: 293FT/ACE2/TMPRSS2/DSP1-7 cells; experiment: Quantification of sphingolipids by LC-MS/MS in 293FT/ACE2/TMPRSS2/DSP1-7 cells; format: cell-based; conditions: for reduction in total sphingolipid levels: 40 µM, vs DMSO
[6] = system: HEK293FT cells expressing DSP1-7 and DSP8-11; format: cell-based; conditions: 2 days treatment
ACE2 [7] = format: cell-based; conditions: 5 µM 4-HPR vs DMSO
VeroE6^TMPRSS2 cells [8] = experiment: Quantification of sphingolipids by LC-MS/MS in VeroE6^TMPRSS2 cells; format: cell-based; conditions: 3 days
VeroE6^TMPRSS2 cells [9] = experiment: WST-8 cytotoxicity assay in VeroE6^TMPRSS2 cells; format: cell-based; conditions: 3 days; for concentration above which cytotoxicity was exhibited: WST-8
[10] = system: 293FT/ACE2/TMPRSS2/DSP1-7 cells; experiment: Cellular membrane fluidity with lipophilic pyrene probe; format: cell-based; conditions: for decrease in membrane fluidity: 2 days, compared with DMSO
[11] = cited from earlier work
[12] = Severe acute respiratory syndrome coronavirus 2, 48 h

| Structure (SMILES) | cell viability [1] | antimembrane fusion activity [2] | EC50 [2, 12] [µM] | CC50 (in vitro) [µM] | concentration above which cytotoxicity was exhibited [1] | CC50 [1] [µM] | EC50 [2] [µM] | also measured |
| --- | --- | --- | --- | --- | --- | --- | --- | --- |
| O[C@H]1[C@H](O)[C@@H](O)[C@@H]2O[C@@H]2[C@@H]1O (racemic) [CBE, conduritol B epoxide] | unaffected | little or no antimembrane fusion activity | > 40 | > 40 |  |  |  |  |
| CC1=C(/C=C/C(C)=C/C=C/C(C)=C/C(=O)Nc2ccc(O)cc2)C(C)(C)CCC1 [4-HPR, N-(4-Hydroxyphenyl) retinamide] |  |  | 4.1 | 11.5 | above 10 µM |  |  | ACE2 expression levels on cell surface (ACE2 [3]): No significant differences; antiviral activity [4]: no antiviral activity; EC50 ([4]; Severe acute respiratory syndrome coronavirus 2, VeroE6/TMPRSS2): 4.4 µM; ratio of saturated sphinganine-based lipids to total sphingolipids ([5]; 2.5 µM 4-HPR, 2 days): ~10%; ratio of saturated sphinganine-based lipids to total sphingolipids ([5]; 5 µM 4-HPR, 2 days): ~20%; luciferase activity in cells harboring preformed DSP1-7/DSP8-11 reporter complex [6]: not affected; ACE2 localization in the membrane microdomain (ACE2 [7]): no dramatic difference; ratio of saturated sphinganine-based lipids to total sphingolipids (VeroE6^TMPRSS2 cells [8]; 1.3 µM): 12%; ratio of saturated sphinganine-based lipids to total sphingolipids (VeroE6^TMPRSS2 cells [8]; 2.5 µM): 17%; ratio of saturated sphinganine-based lipids to total sphingolipids (VeroE6^TMPRSS2 cells [8]; 5 µM): 25%; concentration above which cytotoxicity was exhibited (VeroE6^TMPRSS2 cells [9]): above 10 µM; inhibition of DSP activity (cell-cell fusion) [2]: more than 50%; decrease in membrane fluidity ([10]; 2.5 µM): ~20%; decrease in membrane fluidity ([10]; 5 µM): about 50%; toxicity profile in clinical trials and long-term treatments [11]: low-toxicity profile; day 6 mean peak plasma concentration ([11]; oral powder, 1,500 mg/m^2 per day, patients with relapsed/refractory neuroblastoma): 21 µM |
| CN(C)CCC=C1c2ccccc2CCc2ccccc21 [Amitriptyline] | unaffected | little or no antimembrane fusion activity | > 40 | > 40 |  |  |  |  |
| CCCCCCCCCCCCC/C=C/[C@@H](O)[C@H](CO)NC(=O)CCCCCCC [C8-Cer, N-Octanoyl-d-erythro-sphingosine] |  |  |  |  |  |  |  | decrease in ratio of saturated sphinganine-based lipids to total sphingolipids ([5]; 10 µM C8-Cer with 5 µM 4-HPR, compared to 4-HPR treated cells): approximately 74%; cell-cell fusion efficiencies [2]: no significant differences |
| COc1ccc(/C=C/C(=O)c2c(-c3ccccc3)c3ccccc3[nH]c2=O)cc1 [Ceranib-2] |  | little or no antimembrane fusion activity |  |  | above 2.5 µM | 26.9 | > 1.3 |  |
| CCCCCCCCc1ccc(CCC(N)(CO)CO)cc1 [FTY720] |  | little or no antimembrane fusion activity | > 5 | 12.5 | above 10 µM |  |  |  |
| CCCC[C@@H](C)[C@@H](OC(=O)C[C@@H](CC(=O)O)C(=O)O)[C@H](C[C@@H](C)C[C@H](O)CCCC[C@@H](O)C[C@H](O)[C@H](C)N)OC(=O)C[C@@H](CC(=O)O)C(=O)O [Fumonisin B1] | unaffected | little or no antimembrane fusion activity |  |  |  | > 40 | > 40 | reduction in total sphingolipid levels ([5]; 2 days): ~79% |
| CCCCCCCCCCCCCC1=C([C@H](O)[C@@H](CO)NC(=O)CCCCCCC)C1 [GT11] |  | little or no antimembrane fusion activity |  |  | above 20 µM | 20.3 | > 10 | antiviral activity [4]: no antiviral activity; ratio of saturated sphinganine-based lipids to total sphingolipids ([5]; 10 µM GT11, 2 days): ~10%; concentration above which cytotoxicity was exhibited (VeroE6^TMPRSS2 cells [9]): above 10 µM; membrane fluidity ([10]; 10 µM GT11 compared with 2.5 µM 4-HPR): not significantly different |
| O=C(/C=C/c1ccc(/C=C/C(=O)Nc2ccc(C3=NCCN3)cc2)cc1)Nc1ccc(C2=NCCN2)cc1 [GW4869] |  | little or no antimembrane fusion activity |  |  | above 20 µM | > 40 | > 10 |  |
| CCCCCCCCCCCC(=O)N[C@@H](CO)C[C@H](O)c1ccccc1 [HPA12] | unaffected | little or no antimembrane fusion activity |  |  |  | > 40 | > 40 |  |
| CCCCCCC(=O)CCCCCC/C=C/C[C@@H](O)[C@H](O)[C@@](N)(CO)C(=O)O [Myriocin] | unaffected | little or no antimembrane fusion activity | > 40 | > 40 |  |  |  | antiviral activity [4]: did not exhibit antiviral activity; reduction in total sphingolipid levels ([5]; 2 days): approximately 65%; reduction in total sphingolipid levels (VeroE6^TMPRSS2 cells [8]; vs DMSO): approximately 50%; effect on cell viability (VeroE6^TMPRSS2 cells [9]; at a concentration above 20 µM): no effect |
| Oc1ccc(Nc2nc(-c3ccc(Cl)cc3)cs2)cc1 [SKI-II] |  | little or no antimembrane fusion activity |  |  | above 20 µM | > 40 | > 10 |  |
| CCCCCCCCCCCCCCCC(=O)NC(CN1CCOCC1)C(O)c1ccccc1 (stereo not drawn) [erythro-PPMP] |  |  |  |  |  | 35.8 | 9.1 | levels of GlcCer ([5]; 10 µM, compared to DMSO-treated cells): decreased |
| CCCCCCCCCCCCCCCC(=O)NC(CN1CCOCC1)C(O)c1ccccc1 (stereo not drawn) [threo-PPMP, 1-phenyl-2-palmitoylamino-3-morpholino-1-propanol] |  |  | 8.7 | 25.6 | above 20 µM |  |  | antiviral activity [4]: did not exhibit antiviral activity; luciferase activity in cells harboring preformed DSP1-7/DSP8-11 reporter complex [6]: not affected; reduction in total GlcCer levels (VeroE6^TMPRSS2 cells [8]; compared to DMSO): approximately 60%; concentration above which cytotoxicity was exhibited (VeroE6^TMPRSS2 cells [9]): above 20 µM; inhibition of DSP activity (cell-cell fusion) [2]: more than 50% |
